The source of these data is ChEMBL document CHEMBL2163346, “Acetylcholinesterase inhibitors from the leaves of Macaranga kurzii” (J Nat Prod, 2012).

Experiment [1] relates to KB. Kind of experiment: Cytotoxicity against human KB cells after 72 hrs by neutral red staining. The format is functional, cell-based.
Experiment [2] addresses Acetylcholinesterase (Electrophorus electricus, UniProt O42275).
Description: Inhibition of Electrophorus electricus C2888 AChE using acetylthiocholine iodide as substrate by Ellman's spectroscopic method
Experiment [3] has as its system KB. The experiment is described as follows: Cytotoxicity against human KB cells at 20 uM after 72 hrs by neutral red staining. The format is functional, cell-based.
Experiment [4] has as its target Acetylcholinesterase (Electrophorus electricus) (UniProt O42275). The settings on record: C2888, 50 uM.
Description: Inhibition of Electrophorus electricus C2888 AChE using acetylthiocholine iodide as substrate at 50 uM by Ellman's spectroscopic method

Structures are written as SMILES. Calls of active or inactive are those of the source. The calls are words filed in the database; no cut-off is given here.

Broadly, the IC50 is the concentration needed to halve the response being measured. High values mean weaker potency, low ones greater potency.

Acetylcholinesterase, sequence (O42275 whole entry): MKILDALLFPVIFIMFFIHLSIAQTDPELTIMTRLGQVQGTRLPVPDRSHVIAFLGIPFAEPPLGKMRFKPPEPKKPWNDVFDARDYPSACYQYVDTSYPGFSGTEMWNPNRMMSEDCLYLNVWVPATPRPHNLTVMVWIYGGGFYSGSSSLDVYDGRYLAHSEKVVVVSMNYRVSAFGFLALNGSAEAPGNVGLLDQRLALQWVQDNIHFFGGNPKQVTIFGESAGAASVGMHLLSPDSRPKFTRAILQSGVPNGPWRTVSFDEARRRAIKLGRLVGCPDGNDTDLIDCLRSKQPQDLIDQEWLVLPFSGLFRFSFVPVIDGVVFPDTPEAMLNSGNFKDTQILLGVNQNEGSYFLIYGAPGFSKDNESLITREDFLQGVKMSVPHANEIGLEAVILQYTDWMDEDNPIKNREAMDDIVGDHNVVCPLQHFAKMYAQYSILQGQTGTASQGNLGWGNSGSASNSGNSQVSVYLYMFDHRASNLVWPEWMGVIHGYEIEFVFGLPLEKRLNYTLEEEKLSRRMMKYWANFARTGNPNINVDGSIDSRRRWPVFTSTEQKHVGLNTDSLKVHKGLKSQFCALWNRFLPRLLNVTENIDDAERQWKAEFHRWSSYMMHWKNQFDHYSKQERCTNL
Acetylcholinesterase (Electrophorus electricus), sequence (O42275 24-633 limits assumed): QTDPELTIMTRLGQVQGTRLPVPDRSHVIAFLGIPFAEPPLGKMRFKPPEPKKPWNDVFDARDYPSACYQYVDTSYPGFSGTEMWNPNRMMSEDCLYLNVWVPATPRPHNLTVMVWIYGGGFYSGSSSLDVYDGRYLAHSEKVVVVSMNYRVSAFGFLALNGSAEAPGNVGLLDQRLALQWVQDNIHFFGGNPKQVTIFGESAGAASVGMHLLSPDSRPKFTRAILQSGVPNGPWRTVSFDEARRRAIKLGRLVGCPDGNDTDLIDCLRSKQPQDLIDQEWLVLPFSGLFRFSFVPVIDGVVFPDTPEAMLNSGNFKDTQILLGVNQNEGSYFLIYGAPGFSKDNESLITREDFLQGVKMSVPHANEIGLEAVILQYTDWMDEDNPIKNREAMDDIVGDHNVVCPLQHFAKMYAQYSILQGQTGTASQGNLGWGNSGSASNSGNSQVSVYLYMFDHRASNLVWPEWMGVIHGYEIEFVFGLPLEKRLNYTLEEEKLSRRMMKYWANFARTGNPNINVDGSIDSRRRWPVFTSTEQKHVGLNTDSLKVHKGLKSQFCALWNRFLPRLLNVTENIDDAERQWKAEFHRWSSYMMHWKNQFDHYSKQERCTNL

With `CC(C)=CCc1c(O)cc2oc(-c3ccccc3)c(O)c(=O)c2c1O`, the IC50 in experiment [1] came out at 10 µM.
On to `COc1cc(/C=C/c2ccccc2)c(CC=C(C)C)c(OC)c1`, for which the IC50 in experiment [1] came out at 4 µM; in experiment [2], 19 µM.
Consider `CC(C)=CCc1c(O)cc2c(c1O)C(=O)C[C@@H](c1ccccc1)O2`, for which, in experiment [3], the result was inactive. In experiment [2], the IC50 is 18 µM.
Regarding `CC(C)=CCc1c(O)cc(O)c2c(=O)c(O)c(-c3ccccc3)oc12`, in experiment [3], the outcome was inactive.
Still for that read-out and setting: the result for `COc1cc(/C=C\c2ccccc2)cc(OC)c1` reads “inactive”.
The same measure, in the same setting: the result for `COc1cc(O)c2c(=O)c(O)c(-c3ccccc3)oc2c1` reads “inactive”; that for `O=c1c(O)c(-c2ccccc2)oc2cc(O)cc(O)c12`, “inactive”.
As to `CC1(C)Oc2cc3oc(-c4ccccc4)c(O)c(=O)c3c(O)c2CC1O` (racemic), inhibition in experiment [1] was half-maximal at 13 µM (IC50).
Take `C=C(C)C(O)Cc1c(O)cc2oc(-c3ccccc3)c(O)c(=O)c2c1O` (racemic): the outcome in experiment [3] was inactive.
On to `COc1cc(/C=C/c2ccccc2)cc(OC)c1` [3,5-O-DIMETHYLPINOSYLVIN], for which the outcome in experiment [3] was inactive. The molecule further yielded an IC50 in experiment [2] of 9 µM.
On the same counts, the results for `Oc1cc(/C=C/c2ccccc2)c2ccoc2c1` [FURANOKURZIN] are “inactive” and 42 µM.
On the same counts, the results for `CC(C)=CCc1c(O)cc(O)c2c1O[C@H](c1ccccc1)CC2=O` [GLABRANIN] are “inactive” and 23 µM.
In the case of `CC1(C)C=Cc2c(cc3oc(-c4ccccc4)c(O)c(=O)c3c2O)O1` [MACAKURZIN C], the outcome in experiment [3] was inactive. Moreover, the inhibition entry in experiment [4] is “inactive”. Further, in experiment [2], 20 µM corresponded to half-maximal inhibition (IC50).
